A short description of data set [1]: Plasma pharmacokinetics after single oral dose. It is filed as in vivo. The following applies: human, oral, 400 mg.
The test system of data set [2] is healthy volunteers. Kind of data set: ECG outlier analyses. Format: in vivo, human. The following applies: moxifloxacin 400 mg, n = 18.
Data set [3] deals with QT/QTc interval of healthy volunteers. Briefly: Concentration-QTc.
Data set [4] deals with healthy volunteers. Briefly: Safety assessment: treatment-emergent adverse events. It is filed as in vivo, human. The following applies: moxifloxacin 400 mg, one subject.
Data set [5] relates to healthy volunteers. Briefly: ECG morphological analyses. It is filed as in vivo, human. The following applies: moxifloxacin 400 mg, n = 18.

As to `COc1c(N2C[C@@H]3CCCN[C@@H]3C2)c(F)cc2c(=O)c(C(=O)O)cn(C3CC3)c12` [Moxifloxacin], in data set [1], the exposure (AUC) was determined as 24700 ± 5240 ng·h/mL, the Cmax was found to be 2760 ± 559 ng/mL and the Tmax came to 1 h. In addition, in data set [2], the “Heart rate: Bradycardic outliers” value is listed as 0 n (%), the “Heart rate: Tachycardic outliers” value is 1 (6) n (%), the “PR interval: Outliers” value is given as 0 n (%) and the “QRS interval: Outliers” value is on record as 0 n (%). Further, in data set [2], the “QTcF >30‐60 ms inc change from baseline” value is 2 (11) n (%), the “QTcF >60 ms inc change from baseline” value is 0 n (%), the “QTcF New >480 ms” value is on record as 0 n (%) and the “QTcF New >500 ms” value is given as 0 n (%). Also, the “Predicted Mean Effect at Mean Cmax (placebo-corrected change from baseline QTcF, ΔΔQTcF)” value in data set [3] (moxifloxacin 400 mg, mean Cmax 2758.3 ng/mL) is 15.2 ms. In data set [3] (moxifloxacin plasma concentration, assay sensitivity), the “Slope of placebo-adjusted change from baseline QTcF vs plasma concentration” value turned out to be 4.24 ms/[μg/mL]. Also, in data set [4], the “Somnolence, frequency of subjects” value is 5.6%. In addition, in data set [5], the “New ST‐segment depression changes” value was 1 (6) n (%), the “New ST‐segment elevation changes” value is recorded as 0 n (%), the New atrial fibrillation was 0 n (%) and the New atrial flutter is listed as 0 n (%). Besides, in data set [5], the “New second‐degree heart block” value was 0 n (%) and the “New third‐degree heart block” value is 0 n (%).

The values above are taken from publication PMC7586935 (Journal of Clinical Pharmacology, 2020).
